# Laboratory results: article PMC11054303, “Design and Synthesis of Novel N-Benzylidene Derivatives of 3-Amino-4-imino-3,5-dihydro-4H-chromeno[2,3-d]pyrimidine under Microwave, In Silico ADME Predictions, In Vitro Antitumoral Activities and In Vivo Toxicity” (Pharmaceuticals, 2024)
# Entries after “also recorded” stand apart in the source; their conditions may differ.
# Legend:
# [1] = system: Store-Operated Ca^+2 Entry (SOCE); experiment: Store-operated calcium entry (SOCE) assay in HEK293 cells; assay type: cell-based, human; details: 1.25 to 50 μM added 5 min before recording, 2 μM thapsigargin, then 1.8 mM Ca2+
# Experimental: Thapsigargin (TG), an inhibitor of endoplasmic reticulum Ca^+2-ATPase, is used to deplete intracellular calcium stores in a Ca^+2-free solution and therefore activate SOCE. […] In the context of a preliminary exploration of the functional effects of our molecules of interest and in the absence of a significant inhibition at a low concentration of compound 10h on the reference cell line we used (HEK293) no further exploration of the modulatory effect of this compound on cancer cell lines was initiated.
# The HEK293 cell line was maintained in DMEM High Glucose with Sodium Pyruvate ([…]) and antibiotics (1% of penicillin/streptomycin) in a humidified incubator at 37 °C, supplemented with 5% of CO2.
# For Ca^2+ measurement experiments, HEK293 cells were seeded overnight into 96 wells of a black clear bottom plate (Corning Ref: 3603) at […] in 100 µL culture medium. The resting medium was aspirated and cells were loaded with Fura-2 acetoxymethyl ester (Fura-2 QBT™) fluorochrome. […]
# Intracellular calcium levels were evaluated by recording changes in the fluorescence of the dual-wavelength fluorescent calcium-sensitive dye Fura-2AM using the plate reader FlexStation 3™ (Molecular Devices, Sunnyvale, CA, USA). Dual excitation wavelength capability permits ratiometric measurements of Fura-2AM peak fluorescence emission at 510 nm after excitations at 340 and 380. […]
# MDA MB231 = experiment: Antiproliferative assay, MDA MB231; assay type: cell-based, human
# Experimental: The potential antiproliferative activity of these novel 3-(N-phenylmethyliden)amino-4-imino-3,5-dihydro-4H-chromeno[2,3-d]pyrimidine 10(a-i) and 10-(N-phenylmethyliden)amino-11-imino-11H-naphto[1′,2′:5,6]pyrano[2,3-d]pyrimidine 10(j-l) was evaluated in a panel of eight tumoral cell lines and in diploid skin fibroblasts used as normal cell lines for control. For these antitumor assays, chosen cell lines represent diverse types of human cancer, which are, respectively, human hepatocellular carcinoma (Huh7 D12), human colon adenocarcinoma (Caco2), human breast adenocarcinoma (MDA-MB231), MDA-MB468 for human breast carcinoma which correspond to the Triple Negative Breast Cancer (TNBC), human colon carcinoma (HCT116), PC3 as cell line initiated from bone metastasis of grade IV prostatic adenocarcinoma from a person, MCF7 as breast cancer line isolated from a person and PANC1, as human pancreatic cancer cell line. The potential antiproliferative activity was preliminarily evaluated in vitro at a 25 μM single dose.
# The IC50 was calculated from the full dose-response curve and used as a parameter for the antiproliferative activity of the new compounds.
# Skin diploid fibroblastic cells were provided by BIOPREDIC International Company (Rennes, France). Huh-7D12 (Ref ECACC: 01042712), Caco2 (Ref ECACC: 86010202), MDA-MB-231 (Ref ECACC: 92020424), MDA-MB-468, HCT-116 (Ref ECACC: 91091005), PC3 (Ref ECACC: 90112714), and MCF7 cell lines were obtained from the ECACC collection. PANC1 cell lines, a generous gift of LBAI Inserm 1227 (Brest, France). Cells were grown according to ECACC recommendations in DMEM for Huh-D12, MDA-MB-231, MDA-MB-468 and fibroblast, in EMEM for Caco2, in McCoy’s for HCT-116 and RPMI for PC3 at 37 °C and 5% CO2. All culture media with 10% of FBS, 1% of penicillin-streptomycin and 2 mM glutamine.
# Chemicals were solubilized in DMSO at a concentration of 10 mM (stock solution) and diluted in a culture medium to the desired final concentrations. […] The toxicity test of the chemicals on these cells was as follows: 2 × 10^3 cells for HCT-116 cells or 4 × 10^3 for the other cells were seeded in 96-multi-well plates in triplicate and left for 24 h for attachment, spreading and growing. Then, cells were exposed for 48 h to increasing concentrations of chemicals, ranging from 0.1 μM to 25 μM, in a final volume of 120 μL of culture medium. After 48 h of treatment, cells were washed in PBS and fixed in a cooled 90% ethanol/5% acetic acid solution for 20 min. The nuclei were stained with Hoechst 3342 (B2261 Merck Sigma-Aldrich) and counted. Image acquisition and analysis were performed using automated imaging analysis with a Cellomics Arrayscan VTI/HCS Reader (Thermo/Scientific, Waltham, MA, USA). The survival percentages were calculated as the percentage of cell number after chemical treatment over cell number after DMSO treatment. The IC50 was graphically determined.
structure (smiles),measurement,setting,value
"COc1cccc2c1Oc1ncn(/N=C/c3ccccc3O)c(=N)c1C2 [10h, (3E) 3-N-(2-Hydroxyphenylmethylidene)amino-4-imino-9-methoxy-3,5-dihydro-4H-chromeno[2,3-d]pyrimidine]",inhibition of SOCE,[1],dose-dependent inhibition; also recorded: partially inhibits SOCE in HEK293 cells in a dose-dependent manner; also recorded: dose-dependent effect but with a minor inhibitory effect on SOCE at low concentrations
same,IC50,"MDA MB231; Homo sapiens, MDA-MB-231, 48 h incubation, average of three assays, standard error ± 0.5 μM",300 nM
same,Selectivity Index (SI) MDA MB231,MDA MB231; SI = IC50 fibroblasts/IC50 on MDA MB231,> 83.3
